Like-named read-outs stand apart in the source and are kept apart here. Values belong to the molecule of their own block, whether it stands above or below them.
Tests used:
[1] = solubility in organic solvents; format: physicochemical; settings: organic solvent or mixture
[2] = solubility in water; format: physicochemical; settings: for solubility in water: result in words
[3] = test system: diabetic patients; settings: 16mg/die for 1 week, insulin treatment interrupted; cited from earlier work
[4] = test system: hepatic glucokinase; test: Ex vivo hepatic glucokinasic activity, Experiment B; format: in vivo, Sprague Dawley rat; settings: 2 mg/kg i.p., rats without food for 24 hours, 3 hours after the treatment
Description: Also this experiment, like the previous one, is carried out by following Chauhan et al. process (J. Biol. Chem. 266, 10035, 1991), according to this process, hepatic glucokinase in the rat, which activity is depressed by food absence and it is reactivated by the biotin action.
Sprague Dawley rat weighing on average 260 g left without food for 24 hours, are divided into 15 groups, each of 13 groups are respectively intraperitoneally treated with 2 mg/kg of one of the compounds of the present invention hereinbelow reported in Table 1 or with the same dosage of biotin, all these substances being previously dissolved in physiological solutions. The obtained results are compared with those of the two groups corresponding to normal rats feeded ad libitum and with untreated rats left without food for 24 hours, all the animals had free admission to water.
3 hours after the treatment the rats are sacrificed by cerebral displacement. […] The homogenates are centrifugated at 100.000 x g for 60 minutes.Their proteic concentration is determined according to the above mentioned Bradford method (Anal. Biochem. 72, 248, 1976).
Glucokinase activity is evaluated according to Dakshinamurti et al. (Can. J. Biochem. 46, 75, 1968), and expressed as arbitrary units /proteic concentration of the samples.

[5] = test system: neuropathy; settings: intramuscular for 6 weeks, with oral daily dose of 5 mg for about 2 years; cited from earlier work
[6] = background statement, in words; cited from earlier work
[7] = test system: hepatic glucokinase; test: Ex vivo hepatic glucokinasic activity, Experiment A; format: in vivo, Wistar rats; settings: for Glucokinasic activity: 3 mg/kg i.p. after 24 hours without food, sacrifice after 6 hours, mean ± stan. deviation
Description: This experiment is carried out following to Chauhan et al. process (J. Biol. Chem. 266, 10035, 1991), according to this process, hepatic glucokinase in the rat, which activity is depressed by food absence is reactivated by the biotin action. 15 Wistar rats weighing on average 250 g are divided into three groups, the first one represent the controls, the second one is treated by intraperitoneal route with biotin (3 mg/kg) and the third group with biotinylethanolamine (3 mg/kg) again by intraperitoneal route. Rats are treated after 24 hours without food and after 6 hours are sacrificed by decapitation. Livers are homogenized in 5 volumes 50 mM Tris at pH 7, 0.15 M KCl, 5 mM EGTA, 4 mM MgCl₂, and 2 mM dithiothreitol and centrifugated at 100.000 x g for 60 minutes. The surnatant, frozen to -80 °C, is used for the analyses, after identifying proteins according to Bradford method (Anal. Biochem. 72, 248, 1976). Glucokinase is dosed by spectrophotometry according to Dakshinamurti et al. (Can. J. Biochem. 46, 75, 1968) with the following results: […]

[8] = test system: diabetes induced by streptozotocin; test: Experimental diabetes induced by streptozotocin; format: in vivo, male Wistar rats; settings: for AcAc: Aceto Acetate
Description: The derivatives are then tested in order to define their biologic activity in experimental conditions of hyperglycemia induced both by food absence and by diabetes induced by streptozotocin. Hepatic glucokinase activity is examined in the experimental condition of food absence. Glycemia, insulinemia and the levels of Aceto Acetate (Ac.Ac.) are examined in the diabetes induced by streptozotocin.
10 male Wistar rats (200 g) are divided into 4 groups, the first group is composed by the controls, to the remaining groups streptozotocin is injected by intraperitoneal route (80 mg/kg). The third group is furthermore treated with biotin (3 mg/kg) by intraperitoneal route, and the fourth group with biotinyl ethanolamide (3 mg/kg) again by intraperitoneal route. The treatment is repeated for three days, then a blood sample is taken for analysis on the fifth day from the initial treatment.

[9] = test system: genetically diabetic mice KK; settings: 2mg/kg for 14 days; cited from earlier work
[10] = aqueous buffer, in 0.1M phosphate buffer at pH 7.4
[11] = streptozotocin 80 mg/kg i.p., test substance 3 mg/kg i.p. for three days, blood sample on the fifth day
[12] = result in words, 3 mg/kg i.p., streptozotocin rats

Structure (SMILES): O=C(CCCC[C@@H]1SC[C@@H]2NC(=O)N[C@@H]21)N[C@@H](CO)C(=O)O [Example 7, N-β-biotinyl-L-serine]
solubility ([1]; in DMSO): > 10000 µg/mL
solubility [2, 10]: > 10000 µg/mL

Structure (SMILES): O=C(O)CCCC[C@@H]1SC[C@@H]2NC(=O)N[C@@H]21 [Biotin, biotin]
hematic glucose rate [3]: significant reduction
glucokinase activity [4]: 3.662± 0.280 UA/mg proteins
conduction velocity at the level of the motor nerves and of the action sensory potentials [5]: slight improvement
subjective neurologic symptoms [5]: marked improvement
solubility in water [6]: poorly soluble in water
Glucokinasic activity [7]: 3.96 ± 0.70 U./min/protein mg
AcAc [8, 11]: 0 nmol/L
Glycemia [8, 12]: normalized
insulinemia [8, 12]: active
Glycemia [8, 11]: 7.4 ± 0.9 mmol/L
insulinemia [8, 11]: 25.1 ± 1.5 mU/l
glucose tolerance [9]: improved sensibly

Structure (SMILES): O=C1N[C@H]2[C@H](CS[C@H]2CCCCC(=O)N2CCN(CCO)CC2)N1 [Example 3, N¹-β-biotinyl-N⁴-(2-hydroxyethyl) piperazine hydrochlorate]
solubility ([1]; in DMSO): > 10000 µg/mL
solubility ([2]; water): > 10000 µg/mL

Structure (SMILES): O=C(CCCC[C@@H]1SC[C@@H]2NC(=O)N[C@@H]21)NC1CCCCC1 [Example 9, N-β-biotinyl-aminocyclohexane]
solubility ([1]; in DMSO): > 10000 µg/mL
solubility in water ([2]; water): poorly soluble

Structure (SMILES): O=C(CCCC[C@@H]1SC[C@@H]2NC(=O)N[C@@H]21)NCc1ccc([N+](=O)[O-])cc1 [Example 10, N-β-biotinyl-4-nitrobenzylamine]
solubility ([1]; in DMSO): > 10000 µg/mL
solubility in water ([2]; water): poorly soluble

Structure (SMILES): O=C(CCCC[C@@H]1SC[C@@H]2NC(=O)N[C@@H]21)NCc1ccccc1 [Example 4, N-β-biotinyl-benzylamine]
solubility ([1]; in DMSO): > 10000 µg/mL
solubility ([1]; in ethanol): > 10000 µg/mL
solubility in water ([2]; water): poorly soluble

Structure (SMILES): O=C(CCCC[C@@H]1SC[C@@H]2NC(=O)N[C@@H]21)NCCO [Example 1, N-β-biotinyl-ethanolamine]
solubility ([1]; in DMSO): > 10000 µg/mL
Glucokinasic activity [7]: 4.27 ± 0.45 U./min/protein mg
Glucokinasic activity compared with biotin ([7]; result in words, after 6 hours, 3 mg/kg i.p.): more active than biotin
AcAc [8, 11]: 0 nmol/L
Glycemia [8, 12]: normalized
insulinemia [8, 12]: active
Glycemia [8, 11]: 6.0 ± 0.5 mmol/L
insulinemia [8, 11]: 23.5 ± 1.8 mU/l
solubility ([2]; water): > 10000 µg/mL

Other lines, results leading:

solubility ([1]; in DMSO): > 10000 µg/mL
solubility ([2]; water): > 10000 µg/mL
Structure (SMILES): N=C(N)NCCC[C@H](NC(=O)CCCC[C@@H]1SC[C@@H]2NC(=O)N[C@@H]21)C(=O)O [Example 11, N-β-biotinyl-L-arginine]

solubility ([1]; in DMSO): > 10000 µg/mL
solubility ([2]; water): > 10000 µg/mL
Structure (SMILES): CN=C(N)NCCC[C@H](NC(=O)CCCC[C@@H]1SC[C@@H]2NC(=O)N[C@@H]21)C(=O)O [Example 2, N-β-biotinyl-N^G-methyl-L-arginine]

solubility ([1]; in hot DMSO): > 2000 µg/mL
solubility in water ([2]; water): poorly soluble
Structure (SMILES): O=C(CCCC[C@@H]1SC[C@@H]2NC(=O)N[C@@H]21)NCCNC(=O)CCCC[C@@H]1SC[C@@H]2NC(=O)N[C@@H]21 [Example 6, N,N'bis-(β-biotinyl)-ethylendiamine]

solubility ([1]; in DMSO): > 10000 µg/mL
solubility [2, 10]: > 10000 µg/mL
Structure (SMILES): O=C(CCCC[C@@H]1SC[C@@H]2NC(=O)N[C@@H]21)N[C@@H](CS)C(=O)O [Example 12, N-β-biotinyl-L-cysteine]

solubility ([1]; in DMSO): > 10000 µg/mL
solubility ([2]; water): > 5000 µg/mL
Structure (SMILES): O=C(CCCC[C@@H]1SC[C@@H]2NC(=O)N[C@@H]21)NCCCCO [Example 5, N-β-biotinyl-4-amino-butanol]

solubility ([1]; in DMSO): > 10000 µg/mL
solubility in water ([2]; water): poorly soluble
Structure (SMILES): CCCCNC(=O)CCCC[C@@H]1SC[C@@H]2NC(=O)N[C@@H]21 [Example 8, N-β-biotinyl-1-aminobutane]

— EP0590563A1, “Biotin amides, a process for their preparation and therapeutical compositions containing them as the active principles for the treatment of diabetes and relative complicating diseases” (LIFEGROUP S.p.A., priority 1992, dated 1994)
